Source: patent publication US12624023B2, “Sulfonylurea derivatives and uses thereof” (NodThera Limited, priority 2019, dated 2026)

Key:
[1] = tested on: IL-1β release upon NLRP3 activation in peripheral blood mononuclear cells (PBMC); assay: PBMC IC50 determination assay (IL-1β release, LPS priming + ATP stimulation, HTRF); type: cell-based; settings: PBMC from buffy coats; LPS 1 μg/ml 3 h, compound 30 min, ATP 5 mM 1 h; IL-1β by HTRF
Procedure: The compounds of the present disclosure were tested for their inhibitory activity against IL-1β release upon NLRP3 activation in peripheral blood mononuclear cells (PBMC).
PBMC were isolated from buffy coats by density gradient centrifugation on Histopaque-1077 (Sigma, cat no. 10771). Isolated cells were seeded into the wells (280,000 cells/well) of a 96-well plate and incubated for 3 h with lipopolysaccharide (LPS, 1 μg/ml diluted 1000× from a 1 mg/ml stock solution). The compounds of the present disclosure were added (a single compound per well) and the cells were incubated for 30 min. Next, the cells were stimulated with ATP (5 mM final concentration diluted 20× from a 100 mM stock solution) for 1 h and the cell culture media from the wells were collected for further analysis.
(§1) The release of IL-1β into the media was determined by quantitative detection of IL-1β in the media using HTRF®, CisBio cat. No. 62HIL1BPEH. Briefly, cell culture supernatant were dispensed directly into the assay plate containing antibodies labelled with the HTRF® donor and acceptor. A microplate spectrophotometer (BMG) was used to detect signals at 655 nm and 620 nm. The detection range of IL-1β HTRF® was 39-6500 μg/ml.

[2] = tested on: IL-1β release upon NLRP3 activation in human whole blood; assay: Whole blood (WB) assay (IL-1β release, LPS priming + ATP stimulation, HTRF); type: cell-based; settings: heparin, diluted 9:5 with media, LPS 1 μg/ml 3 h, compound 30 min, ATP 5 mM 1 h, IL-1β by HTRF
Procedure: The compounds of the present disclosure were tested for their inhibitory activity against IL-1β release upon NLRP3 activation in human whole blood.
Whole blood was drawn from single healthy donors and treated with sodium heparin anticoagulant. Blood was diluted with cell culture media at a 9:5 ratio, seeded in a 96-well plate and incubated for 3 h with lipopolysaccharide (LPS, 1 μg/ml final concentration diluted 1000× from a 1 mg/ml stock solution). The compounds of the present disclosure were added (a single compound concentration per well) and the blood was incubated for 30 min. Next, the blood was stimulated with ATP (5 mM final concentration diluted 20× from a 100 mM stock solution) for 1 h and the cell culture media from the wells were collected for further analysis.
as §1, with “were diluted as appropriate to bring IL-1β levels within the HTRF® detection range ([…]) and subsequently” for “were”, “dispensed” for “dispensed directly”, “nm.” for “nm. The detection range of IL-1β HTRF® was 39-6500 μg/ml.”

| IC50 [2] [nM] | Compound | IC50 [1] [nM] |
| --- | --- | --- |
| 1000 to 3000 | CC(C)c1cc(NC(=O)NS(=O)(=O)N(c2cnn(C)c2)C2CCCN(C)C2)c(C2CC2)s1 (stereo not drawn) [Compound 38, 3-[2-Cyclopropyl-5-(propan-2-yl)thiophen-3-yl]-1-[(1-methyl-1H-pyrazol-4-yl)(1-methylpiperidin-3-yl)sulfamoyl]urea] | < 100 |
| < 1000 | CC(C)c1sc(Cl)cc1NC(=O)NS(=O)(=O)N(c1cnn(C)c1)[C@@H]1CCN(C)C1 [Compound 129, 3-[5-Chloro-2-(propan-2-yl)thiophen-3-yl]-1-[(1-methyl-1H-pyrazol-4-yl)-[(3R)-1-methylpyrrolidin-3-yl]sulfamoyl]urea] | < 100 |
| < 1000 | CCc1cc(NC(=O)NS(=O)(=O)N(c2cnn(C)c2)C2CCCN(C)C2)c(C(C)C)o1 (stereo not drawn) [Compound 79, 3-[5-Ethyl-2-(propan-2-yl)furan-3-yl]-1-[(1-methyl-1H-pyrazol-4-yl)(1-methyl-piperidin-3-yl)sulfamoyl]urea] | < 100 |
| < 1000 | CC(C)c1sc(Cl)cc1NC(=O)NS(=O)(=O)N(c1cnn(C)c1)[C@H]1CCN(C)C1 [Compound 128, 3-[5-Chloro-2-(propan-2-yl)thiophen-3-yl]-1-[(1-methyl-1H-pyrazol-4-yl)-[(3S)-1-methylpyrrolidin-3-yl]sulfamoyl]urea] | < 100 |
| < 1000 | Cc1cc(NC(=O)NS(=O)(=O)N(c2cnn(C3CC3)c2F)C2CCCN(C)C2)c(C(C)C)s1 (stereo not drawn) [Compound 114, 1-[(1-Cyclopropyl-5-fluoro-1H-pyrazol-4-yl)(1-methylpiperidin-3-yl)sulfamoyl]-3-[5-methyl-2-(propan-2-yl)thiophen-3-yl]urea] | < 100 |
| 1000 to 3000 | CCc1sc(C(C)C)cc1NC(=O)NS(=O)(=O)N(c1cnn(C)c1)[C@H]1CCCN(C)C1 [Compound 89, 3-[2-Ethyl-5-(propan-2-yl)thiophen-3-yl]-1-[(1-methyl-1H-pyrazol-4-yl)[(3S)-1-methylpiperidin-3-yl]sulfamoyl]urea] | < 100 |
|  | CCc1cc(NC(=O)NS(=O)(=O)N(C[C@@H]2C[C@@H](F)CN2C)c2cnn(C(C)C)c2)c(CC)o1 [Compound 63, 3-(2,5-Diethylfuran-3-yl)-1-({[(2S,4R)-4-fluoro-1-methylpyrrolidin-2-yl]methyl}[1-(propan-2-yl)-1H-pyrazol-4-yl]sulfamoyl)urea] | 1000 to 5000 |
| 1000 to 3000 | Cc1cc(NC(=O)NS(=O)(=O)N(c2cnn(C)c2)[C@H]2C[C@H](F)CN(C)C2)c(C(C)C)s1 [Compound 111, 1-{[(3S,5S)-5-Fluoro-1-methylpiperidin-3-yl](1-methyl-1H-pyrazol-4-yl)sulfamoyl}-3-[5-methyl-2-(propan-2-yl)thiophen-3-yl]urea] | 100 to 500 |
| < 1000 | Cc1cc(NC(=O)NS(=O)(=O)N(c2cnn(C3CC3)c2)[C@@H]2CCCN(C)C2)c(C(C)C)s1 [Compound 104, 1-[(1-Cyclopropyl-1H-pyrazol-4-yl)[(3R)-1-methylpiperidin-3-yl]sulfamoyl]-3-[5-methyl-2-(propan-2-yl)thiophen-3-yl]urea] | < 100 |
| < 1000 | Cc1sc2c(c1NC(=O)NS(=O)(=O)N(c1cnn(C)c1)[C@@H]1CCN(C)C1)CCC2 [Compound 126, 1-[(1-Methyl-1H-pyrazol-4-yl)[(3R)-1-methylpyrrolidin-3-yl]sulfamoyl]-3-{2-methyl-4H,5H,6H-cyclopenta[b]thiophen-3-yl}urea] | < 100 |
| < 1000 | Cc1sc2c(c1NC(=O)NS(=O)(=O)N(c1cnn(C)c1F)C1CCCN(C)C1)CCC2 (stereo not drawn) [Compound 119, 1-[(5-Fluoro-1-methyl-1H-pyrazol-4-yl)(1-methylpiperidin-3-yl)sulfamoyl]-3-{2-methyl-4H,5H,6H-cyclopenta[b]thiophen-3-yl}urea] | < 100 |
| 1000 to 3000 | Cc1sc(C(C)C)cc1NC(=O)NS(=O)(=O)N(c1cnn(C)c1)[C@H]1CCCN(C)C1 [Compound 90, 1-[(1-Methyl-1H-pyrazol-4-yl)[(3S)-1-methylpiperidin-3-yl]sulfamoyl]-3-[2-methyl-5-(propan-2-yl)thiophen-3-yl]urea] | 100 to 500 |
| 1000 to 3000 | CC(C)c1cc(NC(=O)NS(=O)(=O)N(C[C@@H]2C[C@@H](F)CN2C)c2cnn(C)c2)c(C(C)C)s1 [Compound 53] | < 100 |
| 1000 to 3000 | CCc1cc(NC(=O)NS(=O)(=O)N(CCN(C)C)c2cnn(C)c2)c(CC)s1 [Compound 19, 3-(2,5-Diethylthiophen-3-yl)-1-{[2-(dimethylamino)ethyl](1-methyl-1H-pyrazol-4-yl)sulfamoyl}urea] | 100 to 500 |
| 10000 to 20000 | CCc1cc(NC(=O)NS(=O)(=O)N(CCN(C)C)c2cnn(C(C)C)c2)c(CC)o1 [Compound 64, 3-(2,5-Diethylfuran-3-yl)-1-{[2-(dimethylamino)ethyl][1-(propan-2-yl)-1H-pyrazol-4-yl]sulfamoyl}urea] | 1000 to 5000 |
|  | Cc1cc(NC(=O)NS(=O)(=O)N(c2cnn(C3CC3)c2)[C@H]2CCCN(C)C2)c(C2CC2)s1 [Compound 105, 1-[(1-Cyclopropyl-1H-pyrazol-4-yl)[(3S)-1-methylpiperidin-3-yl]sulfamoyl]-3-(2-cyclopropyl-5-methylthiophen-3-yl)urea] | 100 to 500 |
|  | CCc1cc(NC(=O)NS(=O)(=O)N(CCN(C)C)c2cnn(C)c2)c(CC)o1 [Compound 72, 3-(2,5-Diethylfuran-3-yl)-1-{[2-(dimethylamino)ethyl](1-methyl-1H-pyrazol-4-yl)sulfamoyl}urea] | 1000 to 5000 |
| 1000 to 3000 | CC(C)c1cc(C(C)C)c(NC(=O)NS(=O)(=O)N(c2cnn(C)c2)C2CCCN(C)C2)s1 (stereo not drawn) [Compound 52, 3-[3,5-Bis(propan-2-yl)thiophen-2-yl]-1-[(1-methyl-1H-pyrazol-4-yl)(1-methyl-piperidin-3-yl)sulfamoyl]urea] | < 100 |
| > 20000 | CCc1cc(NC(=O)NS(=O)(=O)N(C2CCOC2)C2CCCN(C)C2)c(CC)s1 (stereo not drawn) [Compound 69, 3-(2,5-Diethylthiophen-3-yl)-1-[(1-methylpiperidin-3-yl)(oxolan-3-yl)-sulfamoyl]urea] | > 10000 |
| < 1000 | Cc1cc(NC(=O)NS(=O)(=O)N(c2cnn(C)c2F)C2CCN(C)CC2)c(C(C)C)s1 [Compound 101, 1-[(5-Fluoro-1-methyl-1H-pyrazol-4-yl)(1-methylpiperidin-4-yl)sulfamoyl]-3-[5-methyl-2-(propan-2-yl)thiophen-3-yl]urea] | < 100 |
| < 1000 | CCc1sc2c(c1NC(=O)NS(=O)(=O)N(c1cnn(C)c1)C1CCCN(C)C1)CCC2 (stereo not drawn) [Compound 77, 3-{2-Ethyl-4H,5H,6H-cyclopenta[b]thiophen-3-yl}-1-[(1-methyl-1H-pyrazol-4-yl)(1-methylpiperidin-3-yl)sulfamoyl]urea] | < 100 |
| < 1000 | CCc1cc(NC(=O)NS(=O)(=O)N(c2cnn(C)c2)[C@H]2CCCN(C)C2)c(C(C)C)s1 [Compound 88, 3-[5-Ethyl-2-(propan-2-yl)thiophen-3-yl]-1-[(1-methyl-1H-pyrazol-4-yl)[(3S)-1-methylpiperidin-3-yl]sulfamoyl]urea] | < 100 |
|  | CCc1cc(NC(=O)NS(=O)(=O)N(CC2CCCO2)c2cnn(C)c2)c(CC)o1 (stereo not drawn) [Compound 74, 1-(2,5-Diethylfuran-3-yl)-3-[(1-methyl-1H-pyrazol-4-yl)[(oxolan-2-yl)methyl]-sulfamoyl]urea] | 1000 to 5000 |
|  | Cc1csc(NC(=O)NS(=O)(=O)N(c2cnn(C)c2)C2CCCN(C)C2)c1C (stereo not drawn) [Compound 17, 3-(3,4-Dimethylthiophen-2-yl)-1-[(1-methyl-1H-pyrazol-4-yl)(1-methyl-piperidin-3-yl)sulfamoyl]urea] | 5000 to 10000 |
|  | CCc1cc(NC(=O)NS(=O)(=O)N(C2CCOCC2)C2CCCN(C)C2)c(CC)s1 (stereo not drawn) [Compound 68, 3-(2,5-Diethylthiophen-3-yl)-1-[(1-methylpiperidin-3-yl)(oxan-4-yl)sulfamoyl]-urea] | 5000 to 10000 |
|  | CCc1nc(NC(=O)NS(=O)(=O)N(c2cnn(C)c2)C2CCCN(C)C2)c(CC)s1 (stereo not drawn) [Compound 31, 3-(2,5-Diethyl-1,3-thiazol-4-yl)-1-[(1-methyl-1H-pyrazol-4-yl)(1-methyl-piperidin-3-yl)sulfamoyl]urea] | 5000 to 10000 |
